Reference: PubChem BioAssay AID624131 (National Center for Advancing Translational Sciences (NCATS), 2012)

Test system: mouse liver microsomes, LC-MS/MS half-life
Experiment: qHTS Assay to Find Inhibitors of T. brucei phosphofructokinase: Mouse Liver Microsome Stability
Details: at 1 µM; hits give high values

`O=C(Cc1ccc(Cl)c(Cl)c1)Nc1ccc(S(=O)(=O)Nc2ccon2)cc1` was tested, and the half-life was 3.85 h.
